Laboratory results reported in paper PMC10539439 (Pharmacological Reports, 2023).

Test: Blood pressure, 24-h telemetric method, normotensive rats
Type: in vivo, rat
Settings: 5 mg/kg
Experimental: The blood pressure of rats treated with the tested compound was measured for a 24 h period after ip treatment (5 mg/kg b.w.) with a special telemetric system Stellar (TSE-Systems, Germany).
Surgery: The operation was carried out over 30 min under sterile conditions. Rats were anaesthetized with ketamine and xylasine (intramuscular injection: 100 mg/kg and 10 mg/kg). Before surgery and for 7 days after, the animals were also treated with cefuroxime (20 mg/kg/day) via intramuscular injection and ketoprofen (5 mg/kg/day) via ip injection. […] The transmitter was sutured to the peritoneal cavity.
The rats were individually caged for 2 weeks to heal after surgical cut. The animals were then placed in pairs in cages to reduce their isolation stress. Blood pressure was measured: before ip administration of the compounds – time 0 min and 24 h thereafter.

[1] = telemetry, after first administration, time 0, n 6
[2] = telemetry, after first administration, time 0.25, n 6
[3] = telemetry, after first administration, time 0.5, n 6
[4] = telemetry, after first administration, time 0.75, n 6
[5] = telemetry, after first administration, time 1, n 6
[6] = telemetry, after first administration, time 1.25, n 6
[7] = telemetry, after first administration, time 1.5, n 6
[8] = telemetry, after first administration, time 1.75, n 6
[9] = telemetry, after first administration, time 2, n 6
[10] = telemetry, after first administration, time 3, n 6
[11] = telemetry, after first administration, time 4, n 6
[12] = telemetry, after first administration, time 5, n 6
[13] = telemetry, after first administration, time 6, n 6
[14] = telemetry, after first administration, time 7, n 6
[15] = telemetry, after first administration, time 8, n 6
[16] = telemetry, after first administration, time 9, n 6
[17] = telemetry, after first administration, time 10, n 6

N=C(N)N/N=C/c1c(Cl)cc(O)cc1Cl [4HOGuanabenz]
diastolic pressure, mean (rat, time 0.5): 94.25 mmHg
systolic pressure, mean (rat, time 0.5): 131.8 mmHg
diastolic pressure, mean (rat, time 0.75): 87.25 mmHg
systolic pressure, mean (rat, time 0.75): 118.5 mmHg
diastolic pressure, mean (rat, time 1): 82.5 mmHg
systolic pressure, mean (rat, time 1): 111.8 mmHg
diastolic pressure, mean (rat, time 1.25): 78.5 mmHg
systolic pressure, mean (rat, time 1.25): 107.3 mmHg
diastolic pressure, mean (rat, time 1.5): 79.75 mmHg
systolic pressure, mean (rat, time 1.5): 117.5 mmHg
diastolic pressure, mean (rat, time 1.75): 80.5 mmHg
systolic pressure, mean (rat, time 1.75): 111.3 mmHg
diastolic pressure, mean (rat, time 2): 78.75 mmHg
systolic pressure, mean (rat, time 2): 117.5 mmHg
diastolic pressure, mean (rat, time 3): 77 mmHg
systolic pressure, mean (rat, time 3): 109.8 mmHg
diastolic pressure, mean (rat, time 4): 80.5 mmHg
systolic pressure, mean (rat, time 4): 117 mmHg
diastolic pressure, mean (rat, time 5): 81 mmHg
systolic pressure, mean (rat, time 5): 116.5 mmHg
diastolic pressure, mean (rat, time 6): 77.5 mmHg
systolic pressure, mean (rat, time 6): 119.8 mmHg
diastolic pressure, mean (rat, time 7): 76.25 mmHg
systolic pressure, mean (rat, time 7): 117.3 mmHg
diastolic pressure, mean (rat, time 8): 66.75 mmHg
systolic pressure, mean (rat, time 8): 113.3 mmHg
diastolic pressure, mean (rat, time 9): 83.5 mmHg
systolic pressure, mean (rat, time 9): 131.8 mmHg
diastolic pressure, mean (rat, time 10): 70.75 mmHg
systolic pressure, mean (rat, time 10): 120.8 mmHg
diastolic pressure, mean (rat, time 11): 81.5 mmHg
systolic pressure, mean (rat, time 11): 125.3 mmHg
diastolic pressure, mean (rat, time 12): 77.25 mmHg
systolic pressure, mean (rat, time 12): 123.8 mmHg
diastolic pressure, mean (rat, time 13): 75.75 mmHg
systolic pressure, mean (rat, time 13): 113 mmHg
diastolic pressure, mean (rat, time 14): 73.25 mmHg
systolic pressure, mean (rat, time 14): 113.5 mmHg
diastolic pressure, mean (rat, time 15): 77.5 mmHg
systolic pressure, mean (rat, time 15): 113.3 mmHg
diastolic pressure, mean (rat, time 16): 79.5 mmHg
systolic pressure, mean (rat, time 16): 121.8 mmHg
diastolic pressure, mean (rat, time 17): 88.25 mmHg
systolic pressure, mean (rat, time 17): 124.5 mmHg
diastolic pressure, mean (rat, time 18): 76 mmHg
systolic pressure, mean (rat, time 18): 118.5 mmHg
diastolic pressure, mean (rat, time 19): 76 mmHg
systolic pressure, mean (rat, time 19): 117.5 mmHg
diastolic pressure, mean (rat, time 20): 66 mmHg
systolic pressure, mean (rat, time 20): 108.8 mmHg
diastolic pressure, mean (rat, time 21): 70.5 mmHg
systolic pressure, mean (rat, time 21): 103.3 mmHg
diastolic pressure, mean (rat, time 22): 74.5 mmHg
systolic pressure, mean (rat, time 22): 110.3 mmHg
diastolic pressure, mean (rat, time 23): 75.25 mmHg
systolic pressure, mean (rat, time 23): 116.3 mmHg
diastolic pressure, mean (rat, time 24): 72.75 mmHg
systolic pressure, mean (rat, time 24): 109.5 mmHg
diastolic pressure, mean [1]: 80.5 mmHg
systolic pressure, mean [1]: 126.2 mmHg
diastolic pressure, mean [2]: 92.75 mmHg
systolic pressure, mean [2]: 141 mmHg
diastolic pressure, mean [3]: 87.5 mmHg
systolic pressure, mean [3]: 127.3 mmHg
diastolic pressure, mean [4]: 78 mmHg
systolic pressure, mean [4]: 115.6 mmHg
diastolic pressure, mean [5]: 81.38 mmHg
systolic pressure, mean [5]: 117.3 mmHg
diastolic pressure, mean [6]: 76.88 mmHg
systolic pressure, mean [6]: 111 mmHg
diastolic pressure, mean [7]: 75.13 mmHg
systolic pressure, mean [7]: 106 mmHg
diastolic pressure, mean [8]: 80.13 mmHg
systolic pressure, mean [8]: 112.4 mmHg
diastolic pressure, mean [9]: 74.63 mmHg
systolic pressure, mean [9]: 107 mmHg
diastolic pressure, mean [10]: 78.75 mmHg
systolic pressure, mean [10]: 110.8 mmHg
diastolic pressure, mean [11]: 68.75 mmHg
systolic pressure, mean [11]: 107.9 mmHg
diastolic pressure, mean [12]: 80.88 mmHg
systolic pressure, mean [12]: 114.1 mmHg
diastolic pressure, mean [13]: 78 mmHg
systolic pressure, mean [13]: 111.6 mmHg
diastolic pressure, mean [14]: 71 mmHg
systolic pressure, mean [14]: 111.1 mmHg
diastolic pressure, mean [15]: 72.75 mmHg
systolic pressure, mean [15]: 110.8 mmHg
diastolic pressure, mean [16]: 77.88 mmHg
systolic pressure, mean [16]: 114.6 mmHg
diastolic pressure, mean [17]: 77.63 mmHg
systolic pressure, mean [17]: 114.9 mmHg
diastolic pressure, mean (telemetry, after first administration, time 11, n 6): 70.75 mmHg
